Assay results published in patent US20240150298A1, “ANTIBACTERIAL COMPOUNDS” (Blacksmith Medicines, Inc., priority 2021, published 2024).
Values after ≈ are worked out from the molar mass of the structure shown. Read-outs that look alike come from different tables or passages of the source.

How the values were obtained:
Assay in all cases: Bacterial susceptibility testing, MIC by broth microdilution (CLSI)
Type in all cases: cell-based
E. coli ATCC25922 = conditions: Escherichia coli
Procedure: (§1) Minimal inhibitory concentrations (MIC) were determined by the broth microdilution method in accordance with the Clinical and Laboratory Standards Institute (CLSI) guidelines. In brief, organism suspensions were adjusted to a final inoculum between 3×10^5 and 7×10^5 colony-forming units (CFU)/mL. Drug dilutions and inocula were made in sterile, cation adjusted Mueller-Hinton Broth (Beckton Dickinson). In wells, an inoculum volume of 100 μL was mixed to 2 μL of DMSO with 2-fold serial dilutions of drug. All inoculated microdilution trays were incubated in ambient air at 35° C. for 18-24 h. Following incubation, the lowest concentration of the drug that prevented visible growth (OD600 nm<0.05) was recorded as the MIC. Performance of the assay was monitored by the use of laboratory quality-control strains and compounds with defined MIC spectrum, in accordance with CLSI guidelines.

K. pneumoniae ATCC13883 = conditions: Klebsiella pneumoniae
Procedure: as §1

P. aeruginosa 209 PAO1 = conditions: Pseudomonas aeruginosa
Procedure: as §1

P. aeruginosa ATCC27835 = conditions: Pseudomonas aeruginosa
Procedure: as §1

[1] = ATCC25922, broth microdilution, 35° C., 18-24 h, read-out: MIC E. coli ATCC25922
[2] = ATCC13883, broth microdilution, 35° C., 18-24 h, read-out: MIC K. pneumoniae ATCC13883
[3] = PAO1, broth microdilution, 35° C., 18-24 h, read-out: MIC P. aeruginosa 209 PAO1
[4] = ATCC27835, broth microdilution, 35° C., 18-24 h, read-out: MIC P. aeruginosa ATCC27835
[5] = ATCC25922, read-out: MIC E. coli ATCC25922
[6] = ATCC13883, read-out: MIC K. pneumoniae ATCC13883
[7] = PAO1, read-out: MIC P. aeruginosa 209 PAO1
[8] = ATCC27835, read-out: MIC P. aeruginosa ATCC27835

Compound | MIC (E. coli ATCC25922; [1]) [µg/mL] | MIC (K. pneumoniae ATCC13883; [2]) [µg/mL] | MIC (P. aeruginosa 209 PAO1; [3]) [µg/mL] | MIC (P. aeruginosa ATCC27835; [4]) [µg/mL] | MIC (E. coli ATCC25922; [5]) [µg/mL] | MIC (K. pneumoniae ATCC13883; [6]) [µg/mL] | MIC (P. aeruginosa 209 PAO1; [7]) [µg/mL] | MIC (P. aeruginosa ATCC27835; [8]) [µg/mL]
C[C@H](O)c1nccn1[C@@H](/C=C/c1ccc(-c2ccc(OCC3(CO)COC3)cc2)cc1)CO [Compound 68, (S,E)-2-(2-((S)-1-hydroxyethyl)-1H-imidazol-1-yl)-4-(4′-((3-(hydroxymethyl)oxetan-3-yl)methoxy)-[1,1′-biphenyl]-4-yl)but-3-en-1-ol] | 1 (≈ 2.22 µM) | 2 (≈ 4.44 µM) | 4 (≈ 8.88 µM) | 4 (≈ 8.88 µM) | – | – | – | –
COC[C@H](N)COc1ccc(-c2ccc(/C=C/[C@@H](CO)n3ccnc3[C@H](C)O)cc2)cc1 [Compound 31, (2S,E)-4-(4′-(2-amino-3-methoxypropoxy)-[1,1′-biphenyl]-4-yl)-2-(2-((S)-1-hydroxyethyl)-1H-imidazol-1-yl)but-3-en-1-ol] | 2 (≈ 4.57 µM) | 4 (≈ 9.14 µM) | 1 (≈ 2.29 µM) | 4 (≈ 9.14 µM) | – | – | – | –
C[C@H](O)c1nccn1[C@@H](/C=C/c1ccc(-c2ccc(C3CC(C(=O)O)C3)cc2)cc1)CO (stereo partly drawn) [Compound 51, 3-(4′-((S,E)-4-hydroxy-3-(2-((S)-1-hydroxyethyl)-1H-imidazol-1-yl)but-1-en-1-yl)-[1,1′-biphenyl]-4-yl)cyclobutane-1-carboxylic acid] | 4 (≈ 9.25 µM) | 8 (≈ 18.5 µM) | 4 (≈ 9.25 µM) | 4 (≈ 9.25 µM) | – | – | – | –
C[C@H](O)c1nccn1[C@@H](/C=C/c1ccc(-c2ccc(C3CC(C(=O)NCC#N)C3)cc2)cc1)CO (stereo partly drawn) [Compound 50, N-(cyanomethyl)-3-(4′-((S,E)-4-hydroxy-3-(2-((S)-1-hydroxyethyl)-1H-imidazol-1-yl)but-1-en-1-yl)-[1,1′-biphenyl]-4-yl)cyclobutane-1-carboxamide] | 0.5 (≈ 1.06 µM) | 1 (≈ 2.13 µM) | 2 (≈ 4.25 µM) | 2 (≈ 4.25 µM) | – | – | – | –
C[C@H](O)c1nccn1[C@@H](/C=C/c1ccc(-c2ccc([C@H]3C[C@H](NC(=O)CC#N)C3)cc2)cc1)CO [Compound 65, 2-cyano-N-((1S,3r)-3-(4′-((S,E)-4-hydroxy-3-(2-((S)-1-hydroxyethyl)-1H-imidazol-1-yl)but-1-en-1-yl)-[1,1′-biphenyl]-4-yl)cyclobutyl)acetamide] | – | – | – | – | 0.5 (≈ 1.06 µM) | 1 (≈ 2.13 µM) | 2 (≈ 4.25 µM) | 2 (≈ 4.25 µM)
C[C@H](O)c1nccn1[C@@H](/C=C/c1ccc(-c2ccc(C3CC(CNCc4noc(C(N)=O)n4)C3)cc2)cc1)CO (stereo partly drawn) [Compound 57, 3-((((3-(4′-((S,E)-4-hydroxy-3-(2-((S)-1-hydroxyethyl)-1H-imidazol-1-yl)but-1-en-1-yl)-[1,1′-biphenyl]-4-yl)cyclobutyl)methyl)amino)methyl)-1,2,4-oxadiazole-5-carboxamide] | 0.25 (≈ 0.461 µM) | 1 (≈ 1.84 µM) | 4 (≈ 7.37 µM) | 4 (≈ 7.37 µM) | – | – | – | –
C[C@H](O)c1nccn1[C@@H](/C=C/c1ccc(-c2ccc(C3CC(CNCC#N)C3)cc2)cc1)CO (stereo partly drawn) [Compound 56, 2-(((3-(4′-((S,E)-4-hydroxy-3-(2-((S)-1-hydroxyethyl)-1H-imidazol-1-yl)but-1-en-1-yl)-[1,1′-biphenyl]-4-yl)cyclobutyl)methyl)amino) acetonitrile] | 0.25 (≈ 0.548 µM) | 0.5 (≈ 1.1 µM) | 2 (≈ 4.38 µM) | 4 (≈ 8.76 µM) | – | – | – | –
C[C@H](O)c1nccn1[C@@H](/C=C/c1ccc(-c2ccc(C3CC(CNCCO)C3)cc2)cc1)CO (stereo partly drawn) [Compound 61, (S,E)-2-(2-((S)-1-hydroxyethyl)-1H-imidazol-1-yl)-4-(4′-(3-(((2-hydroxyethyl)amino)methyl)cyclobutyl)-[1,1′-biphenyl]-4-yl) but-3-en-1-ol] | 2 (≈ 4.33 µM) | 8 (≈ 17.3 µM) | 4 (≈ 8.67 µM) | 4 (≈ 8.67 µM) | – | – | – | –
C[C@H](O)c1nccn1[C@@H](/C=C/c1ccc(-c2ccc(CO[C@H]3C[C@H]3N)cc2)cc1)CO (racemic) [Compound 16, (S,E)-4-(4′-(((cis)-2-aminocyclopropoxy)methyl)-[1,1′-biphenyl]-4-yl)-2-(2-((S)-1-hydroxyethyl)-1H-imidazol-1-yl)but-3-en-1-ol] | 2 (≈ 4.77 µM) | 8 (≈ 19.1 µM) | 2 (≈ 4.77 µM) | 4 (≈ 9.53 µM) | – | – | – | –
C[C@H](O)c1nccn1[C@@H](/C=C/c1ccc(-c2ccc([C@H]3C[C@H](NS(C)(=O)=O)C3)cc2)cc1)CO [Compound 62, N-((1S,3r)-3-(4′-((S,E)-4-hydroxy-3-(2-((S)-1-hydroxyethyl)-1H-imidazol-1-yl)but-1-en-1-yl)-[1,1′-biphenyl]-4-yl)cyclobutyl)methanesulfonamide] | – | – | – | – | 1 (≈ 2.08 µM) | 0.5 (≈ 1.04 µM) | 1 (≈ 2.08 µM) | 2 (≈ 4.15 µM)
C[C@H](O)c1nccn1[C@@H](/C=C/c1ccc(-c2ccc(C3CC(NCC#N)C3)cc2F)cc1)CO (stereo partly drawn) [Compound 75, 2-((3-(2-fluoro-4′-((S,E)-4-hydroxy-3-(2-((S)-1-hydroxyethyl)-1H-imidazol-1-yl)but-1-en-1-yl)-[1,1′-biphenyl]-4-yl)cyclobutyl)amino)acetonitrile] | 0.25 (≈ 0.543 µM) | 0.5 (≈ 1.09 µM) | 2 (≈ 4.34 µM) | 4 (≈ 8.69 µM) | – | – | – | –
C[C@H](O)c1nccn1[C@@H](/C=C/c1ccc(-c2ccc([C@@H]3C[C@H]3OCCO)cc2)cc1)CO [Compound 71, (S,E)-4-(4′-((1S,2R)-2-(2-hydroxyethoxy)cyclopropyl)-[1,1′-biphenyl]-4-yl)-2-(2-((S)-1-hydroxyethyl)-1H-imidazol-1-yl)but-3-en-1-ol] | 0.5 (≈ 1.15 µM) | 0.5 (≈ 1.15 µM) | 2 (≈ 4.6 µM) | 4 (≈ 9.21 µM) | – | – | – | –
C[C@H](O)c1nccn1[C@@H](/C=C/c1ccc(-c2ccc(OCC(O)CN(C)C)cc2)cc1)CO (mixture of isomers) [Compound 21, (2S,E)-4-(4′-(3-(dimethylamino)-2-hydroxypropoxy)-[1,1′-biphenyl]-4-yl)-2-(2-((S)-1-hydroxyethyl)-1H-imidazol-1-yl)but-3-en-1-ol] | 16 (≈ 35.4 µM) | 64 (≈ 142 µM) | 8 (≈ 17.7 µM) | 4 (≈ 8.86 µM) | – | – | – | –
C[C@H](O)c1nccn1C/C=C/c1ccc(-c2ccc(OCCN3CCN(CCN)CC3)cc2)cc1 [Compound 5, (S,E)-1-(1-(3-(4′-(2-(4-(2-aminoethyl)piperazin-1-yl)ethoxy)-[1,1′-biphenyl]-4-yl)allyl)-1H-imidazol-2-yl)ethan-1-ol] | 2 (≈ 4.2 µM) | 4 (≈ 8.41 µM) | 4 (≈ 8.41 µM) | 4 (≈ 8.41 µM) | – | – | – | –
C[C@H](O)c1nccn1[C@@H](/C=C/c1ccc(-c2ccc(C3CC(N)C3)cc2)cc1)CO (stereo partly drawn) [Compound 48, (S,E)-4-(4′-(3-aminocyclobutyl)-[1,1′-biphenyl]-4-yl)-2-(2-((S)-1-hydroxyethyl)-1H-imidazol-1-yl)but-3-en-1-ol] | 2 (≈ 4.96 µM) | 16 (≈ 39.7 µM) | 2 (≈ 4.96 µM) | 2 (≈ 4.96 µM) | – | – | – | –
C[C@H](O)c1nccn1[C@@H](/C=C/c1ccc(-c2ccc(C3CC(C(=O)NCC(O)CO)C3)cc2)cc1)CO (stereo partly drawn) [Compound 52, N-(2,3-dihydroxypropyl)-3-(4′-((S,E)-4-hydroxy-3-(2-((S)-1-hydroxyethyl)-1H-imidazol-1-yl)but-1-en-1-yl)-[1,1′-biphenyl]-4-yl)cyclobutane-1-carboxamide] | 4 (≈ 7.91 µM) | 16 (≈ 31.6 µM) | 4 (≈ 7.91 µM) | 4 (≈ 7.91 µM) | – | – | – | –
C[C@H](O)c1nccn1[C@@H](/C=C/c1ccc(-c2ccc(C3CC3OC(CO)CO)cc2)cc1)CO (stereo partly drawn) [Compound 70, 2-(2-(4′-((S,E)-4-hydroxy-3-(2-((S)-1-hydroxyethyl)-1H-imidazol-1-yl)but-1-en-1-yl)-[1,1′-biphenyl]-4-yl)cyclopropoxy)propane-1,3-diol] | 2 (≈ 4.31 µM) | 8 (≈ 17.2 µM) | 4 (≈ 8.61 µM) | 4 (≈ 8.61 µM) | – | – | – | –
C[C@H](O)c1nccn1[C@@H](/C=C/c1ccc(-c2ccc(OCC(N)(CO)CO)cc2)cc1)CO [Compound 74, 2-amino-2-(((4′-((S,E)-4-hydroxy-3-(2-((S)-1-hydroxyethyl)-1H-imidazol-1-yl)but-1-en-1-yl)-[1,1′-biphenyl]-4-yl)oxy)methyl)propane-1,3-diol] | 8 (≈ 17.6 µM) | > 32 | 2 (≈ 4.41 µM) | 1 (≈ 2.2 µM) | – | – | – | –
C[C@H](O)c1nccn1C/C=C/c1ccc(-c2ccc(OCCN3CC(CN)C3)cc2)cc1 [Compound 6, (S,E)-1-(1-(3-(4′-(2-(3-(aminomethyl)azetidin-1-yl)ethoxy)-[1,1′-biphenyl]-4-yl)allyl)-1H-imidazol-2-yl)ethan-1-ol] | 4 (≈ 9.25 µM) | 16 (≈ 37 µM) | 4 (≈ 9.25 µM) | 4 (≈ 9.25 µM) | – | – | – | –
C[C@H](O)c1nccn1[C@@H](/C=C/c1ccc(-c2ccc(C3CC(CNCC(O)CO)C3)cc2)cc1)CO (stereo partly drawn) [Compound 60, 3-(((3-(4′-((S,E)-4-hydroxy-3-(2-((S)-1-hydroxyethyl)-1H-imidazol-1-yl)but-1-en-1-yl)-[1,1′-biphenyl]-4-yl)cyclobutyl)methyl)amino) propane-1,2-diol] | 8 (≈ 16.3 µM) | 16 (≈ 32.5 µM) | 4 (≈ 8.14 µM) | 4 (≈ 8.14 µM) | – | – | – | –
